Measured values as given in patent US9873709B2 (priority 2013, dated 2018).
Structures can show the parent of a compound that is named as a salt.

System: JAK1-dependent STAT6 phosphorylation downstream of IL-13 stimulation in TF-1 human erythroleukemia cells
Assay: cells
Settings: TF-1, read-out: IL-13-pSTAT6 IC50

IC50 [µM]	SMILES
0.0141	O=C(CCC(F)(F)F)N1CC=C(c2cccn3nc(Nc4ccc(C(=O)N5CCN(CCN6CCOCC6)CC5)cc4)nc23)CC1 [Example 2-474, 4,4,4-trifluoro-1-[4-[2-[4-[4-(2-morpholinoethyl)piperazine-1-carbonyl]anilino]-[1,2,4]triazolo[1,5-a]pyridin-8-yl]-3,6-dihydro-2H-pyridin-1-yl]butan-1-one]
0.0429	CN1CCN(C(=O)C2CCN(C(=O)c3ccc(Nc4nc5c(C6=CCN(C(=O)CCC(F)(F)F)CC6)cccn5n4)cc3)CC2)CC1 [Example 2-475, 4,4,4-trifluoro-1-[4-[2-[4-[4-(4-methylpiperazine-1-carbonyl)piperidine-1-carbonyl]anilino]-[1,2,4]triazolo[1,5-a]pyridin-8-yl]-3,6-dihydro-2H-pyridin-1-yl]butan-1-one]
0.0105	Cc1cccnc1CN(C)C(=O)c1ccc(Nc2nc3c(C4=CCN(C(=O)CCC(F)(F)F)CC4)cccn3n2)cc1 [Example 2-476, N-methyl-N-[(3-methyl-2-pyridyl)methyl]-4-[[8-[1-(4,4,4-trifluorobutanoyl)-3,6-dihydro-2H-pyridin-4-yl]-[1,2,4]triazolo[1,5-a]pyridin-2-yl]amino]benzamide]
0.113	CN(Cc1ccc2c(c1)CCCN2C)C(=O)c1ccc(Nc2nc3c(C4=CCN(C(=O)CCC(F)(F)F)CC4)cccn3n2)cc1 [Example 2-477, N-methyl-N-[(1-methyl-3,4-dihydro-2H-quinolin-6-yl)methyl]-4-[[8-[1-(4,4,4-trifluorobutanoyl)-3,6-dihydro-2H-pyridin-4-yl]-[1,2,4]triazolo[1,5-a]pyridin-2-yl]amino]benzamide]
0.0048	O=C(NCCc1ccccn1)c1ccc(Nc2nc3c(C4=CCN(C(=O)CCC(F)(F)F)CC4)cccn3n2)cc1 [Example 2-478, N-[2-(2-pyridyl)ethyl]-4-[[8-[1-(4,4,4-trifluorobutanoyl)-3,6-dihydro-2H-pyridin-4-yl]-[1,2,4]triazolo[1,5-a]pyridin-2-yl]amino]benzamide]
0.178	CN1CCC(N(C)C(=O)c2ccc(Nc3nc4c(C5=CCN(C(=O)N6CC(C)(C)C6)CCC5)cccn4n3)cc2)CC1 [Example 2-480, 4-[[8-[1-(3,3-dimethylazetidine-1-carbonyl)-2,3,4,7-tetrahydroazepin-5-yl]-[1,2,4]triazolo[1,5-a]pyridin-2-yl]amino]-N-methyl-N-(1-methyl-4-piperidyl)benzamide]

SMILES	IC50 [µM]
CN1CCC(N(C)C(=O)c2ccc(Nc3nc4c(C5=CCN(S(=O)(=O)N6CC(C)(C)C6)CC5)cccn4n3)cc2)CC1 [Example 2-479, 4-[[8-[1-(3,3-dimethylazetidin-1-yl)sulfonyl-3,6-dihydro-2H-pyridin-4-yl]-[1,2,4]triazolo[1,5-a]pyridin-2-yl]amino]-N-methyl-N-(1-methyl-4-piperidyl)benzamide]	0.239

Target: isolated recombinant JAK2 kinase domain (Homo sapiens (Human), UniProt O60674)
Sequence (O60674 849-1124): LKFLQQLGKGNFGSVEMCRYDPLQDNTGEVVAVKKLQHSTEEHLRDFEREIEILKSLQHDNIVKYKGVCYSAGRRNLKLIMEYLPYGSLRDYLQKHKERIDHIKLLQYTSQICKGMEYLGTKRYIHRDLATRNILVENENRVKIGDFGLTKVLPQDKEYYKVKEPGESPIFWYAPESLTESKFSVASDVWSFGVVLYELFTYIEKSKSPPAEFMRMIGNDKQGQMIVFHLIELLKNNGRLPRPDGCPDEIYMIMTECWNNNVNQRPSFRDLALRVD
Assay: not given
Settings: read-out: JAK2 Ki; isolated recombinant JAK2 kinase domain, 25 μM ATP

Ki [µM]	SMILES
0.00085	CN1CCC(N(C)C(=O)c2ccc(Nc3nc4c(N5CCC(C)(c6ccccc6)CC5)cccn4n3)cc2)CC1 [Example 1-1, N-methyl-4-(8-(4-methyl-4-phenylpiperidin-1-yl)-[1,2,4]triazolo[1,5-a]pyridin-2-ylamino)-N-(1-methylpiperidin-4-yl)benzamide]
0.0143	CN1CCC(N(C)C(=O)c2ccc(Nc3nc4c(N5CCC(O)(C6CCCCC6)CC5)cccn4n3)cc2)CC1 [Example 1-2, 4-[[8-(4-cyclohexyl-4-hydroxy-1-piperidyl)-[1,2,4]triazolo[1,5-a]pyridin-2-yl]amino]-N-methyl-N-(1-methyl-4-piperidyl)benzamide]
0.0924	CN1CCC(N(C)C(=O)c2ccc(Nc3nc4c(N5CCC(O)CC5)cccn4n3)cc2)CC1 [Example 1-3, 4-[[8-(4-hydroxy-1-piperidyl)-[1,2,4]triazolo[1,5-a]pyridin-2-yl]amino]-N-methyl-N-(1-methyl-4-piperidyl)benzamide; hydrochloride]
0.0124	CN1CCC(N(C)C(=O)c2ccc(Nc3nc4c(N5CC=C(c6ccccc6)CC5)cccn4n3)cc2)CC1 [Example 1-4, N-methyl-N-(1-methyl-4-piperidyl)-4-[[8-(4-phenyl-3,6-dihydro-2H-pyridin-1-yl)-[1,2,4]triazolo[1,5-a]pyridin-2-yl]amino]benzamide]
0.0399	CN1CCC(N(C)C(=O)c2ccc(Nc3nc4c(N5CCC(C)(O)CC5)cccn4n3)cc2)CC1 [Example 1-6, 4-[[8-(4-hydroxy-4-methyl-1-piperidyl)-[1,2,4]triazolo[1,5-a]pyridin-2-yl]amino]-N-methyl-N-(1-methyl-4-piperidyl)benzamide; hydrochloride]
0.00651	CN1CCC(N(C)C(=O)c2ccc(Nc3nc4c(N5CCCC(O)(c6ccccc6)CC5)cccn4n3)cc2)CC1 (stereo not drawn) [Example 1-7, 4-[[8-(4-hydroxy-4-phenyl-azepan-1-yl)-[1,2,4]triazolo[1,5-a]pyridin-2-yl]amino]-N-methyl-N-(1-methyl-4-piperidyl)benzamide]
0.00753	CN1CCC(N(C)C(=O)c2ccc(Nc3nc4c(N5CCC=C(c6ccccc6)CC5)cccn4n3)cc2)CC1 [Example 1-14, N-methyl-N-(1-methyl-4-piperidyl)-4-[[8-(4-phenyl-2,3,6,7-tetrahydroazepin-1-yl)-[1,2,4]triazolo[1,5-a]pyridin-2-yl]amino]benzamide]
0.0122	CN1CCC(N(C)C(=O)c2ccc(Nc3nc4c(N5CC=C(c6ccccc6)CCC5)cccn4n3)cc2)CC1 [Example 1-15, N-methyl-N-(1-methyl-4-piperidyl)-4-[[8-(5-phenyl-2,3,4,7-tetrahydroazepin-1-yl)-[1,2,4]triazolo[1,5-a]pyridin-2-yl]amino]benzamide]
0.0255	CN1CCC(N(C)C(=O)c2ccc(Nc3nc4c(N5CCC(F)(c6ccccc6)CC5)cccn4n3)cc2)CC1 [Example 1-16, 4-[[8-(4-fluoro-4-phenyl-1-piperidyl)-[1,2,4]triazolo[1,5-a]pyridin-2-yl]amino]-N-methyl-N-(1-methyl-4-piperidyl)benzamide]
0.0173	CN1CCC(N(C)C(=O)c2ccc(Nc3nc4c(N5CCC(O)(c6cccc(Cl)c6)CC5)cccn4n3)cc2)CC1 [Example 1-18, 4-[[8-[4-(3-chlorophenyl)-4-hydroxy-1-piperidyl]-[1,2,4]triazolo[1,5-a]pyridin-2-yl]amino]-N-methyl-N-(1-methyl-4-piperidyl)benzamide]
0.0368	CN1CCC(N(C)C(=O)c2ccc(Nc3nc4c(N5CCC(O)(c6ccncc6)CC5)cccn4n3)cc2)CC1 [Example 1-20, 4-[[8-[4-hydroxy-4-(4-pyridyl)-1-piperidyl]-[1,2,4]triazolo[1,5-a]pyridin-2-yl]amino]-N-methyl-N-(1-methyl-4-piperidyl)benzamide]
0.0321	CN1CCC(N(C)C(=O)c2ccc(Nc3nc4c(N5CCC(O)(c6cccc(C#N)c6)CC5)cccn4n3)cc2)CC1 [Example 1-22, 4-[[8-[4-(3-cyanophenyl)-4-hydroxy-1-piperidyl]-[1,2,4]triazolo[1,5-a]pyridin-2-yl]amino]-N-methyl-N-(1-methyl-4-piperidyl)benzamide]
0.0191	CN1CCC(N(C)C(=O)c2ccc(Nc3nc4c(N5CCC6(CNC(=O)O6)C5)cccn4n3)cc2)CC1 (stereo not drawn) [Example 1-24, N-methyl-N-(1-methyl-4-piperidyl)-4-[[8-(2-oxo-1-oxa-3,7-diazaspiro[4.4]nonan-7-yl)-[1,2,4]triazolo[1,5-a]pyridin-2-yl]amino]benzamide]
0.0491	CN1CCC(N(C)C(=O)c2ccc(Nc3nc4c(N5CCN6CCOC[C@@H]6C5)cccn4n3)cc2)CC1 [Example 1-25, 4-[[8-[(9aS)-3,4,6,7,9,9a-hexahydro-1H-pyrazino[2,1-c][1,4]oxazin-8-yl]-[1,2,4]triazolo[1,5-a]pyridin-2-yl]amino]-N-methyl-N-(1-methyl-4-piperidyl)benzamide]
0.0172	CN1CCC(N(C)C(=O)c2ccc(Nc3nc4c(N5CCC6(CC5)CNC(=O)C6)cccn4n3)cc2)CC1 [Example 1-27, N-methyl-N-(1-methyl-4-piperidyl)-4-[[8-(3-oxo-2,8-diazaspiro[4.5]decan-8-yl)-[1,2,4]triazolo[1,5-a]pyridin-2-yl]amino]benzamide]
0.00821	CN1CCC(N(C)C(=O)c2ccc(Nc3nc4c(N5CCC6(CC5)CNC(=O)O6)cccn4n3)cc2)CC1 [Example 1-28, N-methyl-N-(1-methyl-4-piperidyl)-4-[[8-(2-oxo-1-oxa-3,8-diazaspiro[4.5]decan-8-yl)-[1,2,4]triazolo[1,5-a]pyridin-2-yl]amino]benzamide]
0.0524	CN1CCC(N(C)C(=O)c2ccc(Nc3nc4c(N5CCN6C(=O)NCCC6C5)cccn4n3)cc2)CC1 (stereo not drawn) [Example 1-31, N-methyl-N-(1-methyl-4-piperidyl)-4-[[8-(6-oxo-3,4,7,8,9,9a-hexahydro-1H-pyrazino[1,2-c]pyrimidin-2-yl)-[1,2,4]triazolo[1,5-a]pyridin-2-yl]amino]benzamide]
0.0288	CN1CCC(N(C)C(=O)c2ccc(Nc3nc4c(N5CCN6C(=O)COC[C@@H]6C5)cccn4n3)cc2)CC1 [Example 1-32, 4-[[8-[(9aS)-4-oxo-6,7,9,9a-tetrahydro-1H-pyrazino[2,1-c][1,4]oxazin-8-yl]-[1,2,4]triazolo[1,5-a]pyridin-2-yl]amino]-N-methyl-N-(1-methyl-4-piperidyl)benzamide]
0.0387	CN1CCC(N(C)C(=O)c2ccc(Nc3nc4c(N5CCN6C(=O)COC[C@H]6C5)cccn4n3)cc2)CC1 [Example 1-33, 4-[[8-[(9aR)-4-oxo-6,7,9,9a-tetrahydro-1H-pyrazino[2,1-c][1,4]oxazin-8-yl]-[1,2,4]triazolo[1,5-a]pyridin-2-yl]amino]-N-methyl-N-(1-methyl-4-piperidyl)benzamide]
0.0277	CN1CCC(N(C)C(=O)c2ccc(Nc3nc4c(N5CCC(O)(c6ccccc6Cl)CC5)cccn4n3)cc2)CC1 [Example 1-35, 4-[[8-[4-(2-chlorophenyl)-4-hydroxy-1-piperidyl]-[1,2,4]triazolo[1,5-a]pyridin-2-yl]amino]-N-methyl-N-(1-methyl-4-piperidyl)benzamide]
